Measurements as given in the supplement of paper PMC13380429.

Columns and labels:
Settings in all cases: 72 h
[1] = test system: Caco-2; experiment: cell viability relative to DMSO; higher = less toxic
[2] = test system: HepG2; experiment: as above
[3] = test system: U2OS; experiment: as above
[4] = test system: Vero E6; experiment: as above
[5] = test system: HepG2; experiment: relative viability EC50 (midpoint between 100% and the lowest measured viability); higher = less toxic
[6] = test system: U2OS; experiment: as above
[7] = test system: Caco-2; experiment: drug sensitivity score (DSS) for viability; higher = more toxic; extreme values may be limits of the assay
[8] = test system: HepG2; experiment: as above
[9] = test system: U2OS; experiment: as above
[10] = test system: Vero E6; experiment: as above
[11] = test system: Caco-2; experiment: relative viability EC50 (midpoint between 100% and the lowest measured viability); higher = less toxic
[12] = test system: Vero E6; experiment: as above
[13] = test system: Calu-3; experiment: cell viability relative to DMSO; higher = less toxic
[14] = test system: Calu-3; experiment: drug sensitivity score (DSS) for viability; higher = more toxic; extreme values may be limits of the assay
[15] = test system: Calu-3; experiment: relative viability EC50 (midpoint between 100% and the lowest measured viability); higher = less toxic

| Structure (SMILES) | cell viability ([1]; 1 nM) | cell viability ([1]; 10 nM) | cell viability ([1]; 100 nM) | cell viability ([1]; 1000 nM) | cell viability ([1]; 10000 nM) | cell viability ([2]; 1 nM) | cell viability ([2]; 10 nM) | cell viability ([2]; 100 nM) | cell viability ([2]; 1000 nM) | cell viability ([2]; 10000 nM) | cell viability ([3]; 1 nM) | cell viability ([3]; 10 nM) | cell viability ([3]; 100 nM) | cell viability ([3]; 1000 nM) | cell viability ([3]; 10000 nM) | cell viability ([4]; 1 nM) | cell viability ([4]; 10 nM) | cell viability ([4]; 100 nM) | cell viability ([4]; 1000 nM) | cell viability ([4]; 10000 nM) | relative viability EC50 [5] | relative viability EC50 [6] | drug sensitivity score [7] | drug sensitivity score [8] | drug sensitivity score [9] | drug sensitivity score [10] | relative viability EC50 [11] | relative viability EC50 [12] | cell viability ([13]; 1 nM) | cell viability ([13]; 10 nM) | cell viability ([13]; 100 nM) | cell viability ([13]; 1000 nM) | cell viability ([13]; 10000 nM) | drug sensitivity score [14] | relative viability EC50 [15] |
| --- | --- | --- | --- | --- | --- | --- | --- | --- | --- | --- | --- | --- | --- | --- | --- | --- | --- | --- | --- | --- | --- | --- | --- | --- | --- | --- | --- | --- | --- | --- | --- | --- | --- | --- | --- |
| CS(=O)(=O)CCNCc1nc(-c2ccc3ncnc(Nc4ccc(OCc5cccc(F)c5)c(Cl)c4)c3c2)cs1 | 97.1% | 97.5% | 90.5% | 80.8% | 73.1% | 106% | 111% | 93.5% | 102% | 104% | 99.9% | 100% | 96.7% | 94.2% | 89.8% | 95% | 98.3% | 93.3% | 79% | 72.5% | > 10 µM | > 10 µM | 3.5 | 0 | 0 | 3.7 | – | – | – | – | – | – | – | – | – |
| O=C(COc1ccc(C(=O)c2ccccc2)cc1)NC1CCN(Cc2ccccc2)CC1 [adiporon] | 95.2% | 92.7% | 99% | 91.6% | 91.9% | 92.1% | 94.3% | 94.8% | 107% | 85.4% | 96.4% | 93.2% | 100% | 98.1% | 95.7% | 97.1% | 98.2% | 93.8% | 96.9% | 101% | > 10 µM | > 10 µM | 0 | 0 | 0 | 0 | > 10 µM | > 10 µM | – | – | – | – | – | – | – |
| Cc1ccc(NC(=O)c2ccc(CN3CC[C@H](N(C)C)C3)c(C(F)(F)F)c2)cc1Nc1nccc(-c2cncnc2)n1 [bafetinib] | 97.1% | 108% | 92.9% | 104% | 79% | 98.4% | 89.2% | 91% | 85.1% | 19.5% | 99.9% | 101% | 103% | 99.4% | 79% | 96.7% | 98.1% | 96.5% | 99.7% | 76.1% | 1.8 µM | > 10 µM | 0.5 | 6.9 | 0.7 | 0.9 | > 10 µM | > 10 µM | 98.7% | 107% | 98.8% | 99.9% | 74.8% | 1 | – |
| CCOc1c(N2CCOCC2)cnn(C)c1=O [emorfazone] | 99.1% | 119% | 112% | 127% | 108% | 106% | 109% | 97.2% | 118% | 108% | 96.4% | 93.1% | 93.8% | 96.1% | 104% | 95.3% | 93.6% | 98.3% | 96.2% | 99.4% | > 10 µM | > 10 µM | 0 | 0 | 0 | 0 | > 10 µM | > 10 µM | – | – | – | – | – | – | – |
| N=C(N)NCCC[C@H](NC(=O)[C@@H]1CCCN1C(=O)[C@@H]1CSSC[C@H](N)C(=O)N[C@@H](Cc2ccc(O)cc2)C(=O)N[C@@H](Cc2ccccc2)C(=O)N[C@@H](CCC(N)=O)C(=O)N[C@@H](CC(N)=O)C(=O)N1)C(=O)NCC(N)=O [vasopressin] | 94.8% | 93% | 88% | 87.5% | 99.2% | 101% | 98% | 86.3% | 92.3% | 99.5% | 102% | 97.2% | 99.8% | 97.8% | 98% | 101% | 99.1% | 98.1% | 94% | 99.1% | > 10 µM | > 10 µM | 0 | 0 | 0 | 0 | > 10 µM | > 10 µM | – | – | – | – | – | – | – |
| C[C@@H]1C/C=C/C=C/C=C/C=C/[C@H](O[C@@H]2O[C@H](C)[C@@H](O)[C@H](N)[C@@H]2O)C[C@@H]2O[C@](O)(C[C@@H](O)C[C@H]3O[C@@H]3/C=C/C(=O)O1)C[C@H](O)[C@H]2C(=O)O [natamycin] | 90.9% | 103% | 95.3% | 97.1% | 107% | 89.7% | 91.6% | 92.5% | 93.3% | 94.8% | 95.9% | 97.5% | 94.3% | 102% | 108% | 95.7% | 96.6% | 93.3% | 88.7% | 105% | > 10 µM | > 10 µM | 0 | 0 | 0 | 0 | > 10 µM | > 10 µM | – | – | – | – | – | – | – |
| Nc1nc2ccc(OC(F)(F)F)cc2s1 [riluzole] | 97.4% | 90.4% | 91.7% | 103% | 96.9% | 97.9% | 106% | 96.6% | 94.7% | 105% | – | – | – | – | – | 93.4% | 98.1% | 98.7% | 99.5% | 104% | > 10 µM | – | 0 | 0 | – | 0 | > 10 µM | > 10 µM | 96% | 100% | 109% | 97.5% | 103% | 0 | > 10 µM |
| CC1(C)CN(C(=O)c2ccc(-c3cccc4nc(NC(=O)C5CC5)nn34)cc2)C1 [solcitinib] | 99.1% | 99.8% | 92.9% | 87.3% | 81.7% | 105% | 112% | 99.6% | 98.4% | 96.6% | 101% | 97.3% | 101% | 97.2% | 96.8% | – | – | – | – | – | > 10 µM | > 10 µM | 1.5 | 0 | 0 | – | > 10 µM | – | 106% | 94.5% | 102% | 101% | 92.2% | 0 | > 10 µM |
| O=S(=O)(O)c1cc(I)c(O)c2ncccc12 [chiniofon] | 107% | 101% | 95.4% | 104% | 94.8% | 111% | 102% | 104% | 102% | 99% | – | – | – | – | – | – | – | – | – | – | > 10 µM | – | 0 | 0 | – | – | > 10 µM | – | 98.2% | 102% | 94.6% | 95.9% | 93.6% | 0 | > 10 µM |
| O=C(O)COc1cccc(CN(Cc2ccc(-n3cccn3)cc2)S(=O)(=O)c2cccnc2)c1 [taprenepag] | 104% | 102% | 99.2% | 109% | 93.9% | 92.5% | 104% | 93.8% | 104% | 96.4% | – | – | – | – | – | 105% | 97.2% | 97.5% | 102% | 104% | > 10 µM | – | 0 | 0 | – | 0 | > 10 µM | > 10 µM | 109% | 95.6% | 94.5% | 92.9% | 91.7% | 0 | > 10 µM |
| COc1cc(OC)cc(N(CCNC(C)C)c2ccc3ncc(-c4cnn(C)c4)nc3c2)c1 [erdafitinib] | 90.1% | 99.3% | 94% | 99.3% | 65.2% | 101% | 111% | 104% | 99.4% | 39.2% | 101% | 97.3% | 91.5% | 84% | 53.1% | 94% | 99% | 92% | 98.9% | 35.9% | 3.09 µM | – | 1.7 | 3.4 | 4.1 | 3.6 | – | 3.04 µM | 109% | 90.2% | 92.3% | 89.6% | 81.4% | 1.3 | > 10 µM |
| COc1ccc(CC2NCCc3c2[nH]c2ccc(C)cc32)c(Cl)c1OC (stereo unspecified) | 94.8% | 98.2% | 105% | 102% | 87.9% | 103% | 90.2% | 108% | 104% | 91.7% | 95.4% | 101% | 98.3% | 101% | 94% | 99% | 93.2% | 101% | 89.1% | 76.5% | > 10 µM | > 10 µM | 0 | 0 | 0 | 2.1 | > 10 µM | > 10 µM | 101% | 95.9% | 92.9% | 102% | 66.8% | 1.3 | – |
| O=C(O)c1cc(Oc2ccc([N+](=O)[O-])cc2)cc(Oc2ccc([N+](=O)[O-])cc2)c1 [compound-w] | – | – | – | – | – | 106% | 98.9% | 102% | 104% | 108% | – | – | – | – | – | – | – | – | – | – | > 10 µM | – | – | 0 | – | – | – | – | 107% | 104% | 105% | 96.9% | 94.6% | 0 | > 10 µM |
| Cc1noc(C)c1-c1ccc(-c2cc(C(N)=O)c(NC(N)=O)s2)c(O[C@H]2CCNC2)c1 [AZD3264] | 95.7% | 100% | 100% | 103% | 106% | 114% | 97.6% | 99.8% | 101% | 99.4% | – | – | – | – | – | 102% | 104% | 105% | 97.4% | 103% | > 10 µM | – | 0 | 0 | – | 0 | > 10 µM | > 10 µM | 97.4% | 95.7% | 103% | 101% | 105% | 0 | > 10 µM |
| CC(C)(N)c1cc(C(=O)N[C@@H]2CCc3ccc(Oc4ccnc5c4CCC(=O)N5)cc3C2)cc(C(F)(F)F)c1 [ML786] | 108% | 92.7% | 104% | 90.8% | 68.5% | 99.2% | 110% | 62.4% | 31.1% | 6.8% | 101% | 98.6% | 100% | 82.4% | 9.6% | 106% | 105% | 112% | 99% | 33.5% | 0.221 µM | 1.76 µM | 2.7 | 17.5 | 7.9 | 3.8 | – | 3.06 µM | – | – | – | – | – | – | – |
| Cn1ccc2cc3c(cc21)CCN3C(=O)Nc1cccnc1 | 88.8% | 93.2% | 98.1% | 104% | 81.3% | 105% | 114% | 95.7% | 95.3% | 100% | 98.2% | 102% | 93.9% | 96% | 95.1% | 99.1% | 96.8% | 100% | 95.5% | 100% | > 10 µM | > 10 µM | 0.1 | 0 | 0 | 0 | > 10 µM | > 10 µM | – | – | – | – | – | – | – |
